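Results reflect a 48-hour exposure of cells in 96-well plates to compound at five concentrations. TGI marks complete inhibition of growth.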
The compounds below were run on DU-145 prostate (assay: growth of human tumour cells (NCI), 48 h).

| SMILES | TGI [µM] |
| --- | --- |
| Cc1cc(C)nc(NC(=O)c2ccc(Br)s2)c1 | > 100 |
| N#Cc1nc2ccccc2nc1N1CCN(c2ccc([N+](=O)[O-])cc2)CC1 | > 100 |
| CN1CCN(C(=O)CCNC(=O)Cc2ccc(C(=O)c3ccccc3)cc2)CC1 | > 100 |
| COc1cc(OC)c(-c2ccc(OCc3ccccc3)c3c(OC)cc(C)cc23)c2c1C(C)=N[C@H](C)C2 | 4.16 |
| COc1ccc(N2C(=O)C(=O)N(c3ccccc3[N+](=O)[O-])C2=S)cc1 | > 100 |
| O=C(O)CC1NC(/C(=C/c2ccccc2)NC(=O)c2ccccc2)OC1=O (stereo unspecified) | > 100 |
| Nc1c2c(nc3cc(F)c(F)cc13)CCC2 | > 100 |
| COc1ccccc1/C(=N\OCCC(=O)O)c1cccs1 | > 100 |
| CC(C)(Br)C(Br)CCC1(C2CO2)CO1 (stereo unspecified) | > 5 |
| CCCn1c2ccccc2c2ccc3c(c21)C(=O)C=CC3=O | > 10 |
| CC1(c2cccs2)CC(c2cccs2)=C(C#N)C(=C(C#N)C#N)N1 (stereo unspecified) | 28.9 |
| O=C1C2CC=CCC2C(=O)N1n1c(Cc2ccc(Cl)cc2)n[nH]c1=O (stereo unspecified) | > 100 |
| CCN(CC)CCC(=O)/C=C/c1ccccc1 | > 73.9 |
| Oc1c(C2=NNC(c3ccc(Cl)cc3Cl)C2)ccc2ccccc12 (stereo unspecified) | > 100 |

The compounds below were run on MDA-MB-231 breast (assay: growth of human tumour cells (NCI), 48 h).

| SMILES | TGI [µM] |
| --- | --- |
| OC1[C@@H]2[C@@H](O)[C@H](O)[C@@H](O)N2C[C@@H]1O (stereo partly specified) | > 100 |
| C=C1C(=O)C[C@H]2C(=C)C(=O)O[C@@H]2C2C1CC[C@@]2(C)O (stereo partly specified) | 75.2 |
| COC(=O)C1=C(C)NC2=C(C(=O)c3ccccc32)C1c1cn(-c2ccccc2)nc1-c1ccccc1 (stereo unspecified) | > 100 |
| OCC1OC(c2cccc3cc(O)c(O)cc23)CC1O (stereo unspecified) | > 100 |
| CC(C)(Cl)C(Br)CCC(C)(Cl)C(Br)CBr (stereo unspecified) | 47.2 |
| O=C(NCC(=O)N1CCCC1C(=O)OC(=O)C1CCCN1C(=O)CNC(=O)OCc1ccccc1)OCc1ccccc1 (stereo unspecified) | 54.7 |
| CN(Cc1cnc2nc(N)nc(N)c2n1)c1ccc(C(=O)NC(CCC(=O)NCCC(P(=O)(O)O)P(=O)(O)O)C(=O)O)cc1 (stereo unspecified) | > 100 |
| O=C1NC(NNc2ccccc2)=N/C1=C\c1ccccc1O | > 100 |
| C[N+](CCCl)(CCCl)Cc1cccc2cccc([N+](=O)[O-])c12 | > 100 |
| O=C1NC(=O)C(c2c[nH]c3ccccc23)=C1c1cnc[nH]1 | > 100 |
| Cc1c([N+](=O)[O-])ccc2c(NCCCN(C)C)ccnc12 | 56.6 |
| Cc1cc(C)nc(NC(=O)c2ccc(Br)s2)c1 | 81.6 |
| N#Cc1nc2ccccc2nc1N1CCN(c2ccc([N+](=O)[O-])cc2)CC1 | > 100 |
| CN1CCN(C(=O)CCNC(=O)Cc2ccc(C(=O)c3ccccc3)cc2)CC1 | > 100 |
| COc1cc(OC)c(-c2ccc(OCc3ccccc3)c3c(OC)cc(C)cc23)c2c1C(C)=N[C@H](C)C2 | 4.18 |
| COc1ccc(N2C(=O)C(=O)N(c3ccccc3[N+](=O)[O-])C2=S)cc1 | > 100 |
| O=C(O)CC1NC(/C(=C/c2ccccc2)NC(=O)c2ccccc2)OC1=O (stereo unspecified) | 69.7 |
| Nc1c2c(nc3cc(F)c(F)cc13)CCC2 | > 100 |
| COc1ccccc1/C(=N\OCCC(=O)O)c1cccs1 | > 100 |
| CC(C)(Br)C(Br)CCC1(C2CO2)CO1 (stereo unspecified) | > 5 |
| CCCn1c2ccccc2c2ccc3c(c21)C(=O)C=CC3=O | 5.08 |
| CC1(c2cccs2)CC(c2cccs2)=C(C#N)C(=C(C#N)C#N)N1 (stereo unspecified) | 50.6 |
| O=C1C2CC=CCC2C(=O)N1n1c(Cc2ccc(Cl)cc2)n[nH]c1=O (stereo unspecified) | > 100 |
| CCN(CC)CCC(=O)/C=C/c1ccccc1 | 28.9 |
| Oc1c(C2=NNC(c3ccc(Cl)cc3Cl)C2)ccc2ccccc12 (stereo unspecified) | > 100 |

What follows are compounds tested on MDA-N (assay: growth of human tumour cells (NCI), 48 h).

| SMILES | TGI [µM] |
| --- | --- |
| OC1[C@@H]2[C@@H](O)[C@H](O)[C@@H](O)N2C[C@@H]1O (stereo partly specified) | > 100 |
| C=C1C(=O)C[C@H]2C(=C)C(=O)O[C@@H]2C2C1CC[C@@]2(C)O (stereo partly specified) | 77.8 |
| COC(=O)C1=C(C)NC2=C(C(=O)c3ccccc32)C1c1cn(-c2ccccc2)nc1-c1ccccc1 (stereo unspecified) | > 100 |
| OCC1OC(c2cccc3cc(O)c(O)cc23)CC1O (stereo unspecified) | > 100 |
| CC(C)(Cl)C(Br)CCC(C)(Cl)C(Br)CBr (stereo unspecified) | 81.9 |
| O=C(NCC(=O)N1CCCC1C(=O)OC(=O)C1CCCN1C(=O)CNC(=O)OCc1ccccc1)OCc1ccccc1 (stereo unspecified) | > 100 |
| CN(Cc1cnc2nc(N)nc(N)c2n1)c1ccc(C(=O)NC(CCC(=O)NCCC(P(=O)(O)O)P(=O)(O)O)C(=O)O)cc1 (stereo unspecified) | > 100 |
| O=C1NC(NNc2ccccc2)=N/C1=C\c1ccccc1O | > 100 |
| C[N+](CCCl)(CCCl)Cc1cccc2cccc([N+](=O)[O-])c12 | > 100 |
| O=C1NC(=O)C(c2c[nH]c3ccccc23)=C1c1cnc[nH]1 | > 100 |
| Cc1c([N+](=O)[O-])ccc2c(NCCCN(C)C)ccnc12 | 28.4 |
| Cc1cc(C)nc(NC(=O)c2ccc(Br)s2)c1 | > 100 |
| N#Cc1nc2ccccc2nc1N1CCN(c2ccc([N+](=O)[O-])cc2)CC1 | > 100 |
| CN1CCN(C(=O)CCNC(=O)Cc2ccc(C(=O)c3ccccc3)cc2)CC1 | 71.5 |
| COc1cc(OC)c(-c2ccc(OCc3ccccc3)c3c(OC)cc(C)cc23)c2c1C(C)=N[C@H](C)C2 | 4 |
| COc1ccc(N2C(=O)C(=O)N(c3ccccc3[N+](=O)[O-])C2=S)cc1 | 74.2 |
| O=C(O)CC1NC(/C(=C/c2ccccc2)NC(=O)c2ccccc2)OC1=O (stereo unspecified) | 86.4 |
| Nc1c2c(nc3cc(F)c(F)cc13)CCC2 | > 100 |
| COc1ccccc1/C(=N\OCCC(=O)O)c1cccs1 | > 100 |
| CC(C)(Br)C(Br)CCC1(C2CO2)CO1 (stereo unspecified) | > 5 |
| CCCn1c2ccccc2c2ccc3c(c21)C(=O)C=CC3=O | 6.43 |
| CC1(c2cccs2)CC(c2cccs2)=C(C#N)C(=C(C#N)C#N)N1 (stereo unspecified) | 31.1 |
| O=C1C2CC=CCC2C(=O)N1n1c(Cc2ccc(Cl)cc2)n[nH]c1=O (stereo unspecified) | > 100 |
| CCN(CC)CCC(=O)/C=C/c1ccccc1 | 26.4 |
| Oc1c(C2=NNC(c3ccc(Cl)cc3Cl)C2)ccc2ccccc12 (stereo unspecified) | 55.5 |

These compounds were tested on OVCAR-8 ovarian (assay: growth of human tumour cells (NCI), 48 h).

| SMILES | TGI [µM] |
| --- | --- |
| OC1[C@@H]2[C@@H](O)[C@H](O)[C@@H](O)N2C[C@@H]1O (stereo partly specified) | > 100 |
| C=C1C(=O)C[C@H]2C(=C)C(=O)O[C@@H]2C2C1CC[C@@]2(C)O (stereo partly specified) | > 100 |
| COC(=O)C1=C(C)NC2=C(C(=O)c3ccccc32)C1c1cn(-c2ccccc2)nc1-c1ccccc1 (stereo unspecified) | > 100 |
| OCC1OC(c2cccc3cc(O)c(O)cc23)CC1O (stereo unspecified) | > 100 |
| CC(C)(Cl)C(Br)CCC(C)(Cl)C(Br)CBr (stereo unspecified) | > 100 |
| O=C(NCC(=O)N1CCCC1C(=O)OC(=O)C1CCCN1C(=O)CNC(=O)OCc1ccccc1)OCc1ccccc1 (stereo unspecified) | > 100 |
| CN(Cc1cnc2nc(N)nc(N)c2n1)c1ccc(C(=O)NC(CCC(=O)NCCC(P(=O)(O)O)P(=O)(O)O)C(=O)O)cc1 (stereo unspecified) | > 100 |
| O=C1NC(NNc2ccccc2)=N/C1=C\c1ccccc1O | > 100 |
| C[N+](CCCl)(CCCl)Cc1cccc2cccc([N+](=O)[O-])c12 | > 100 |
| O=C1NC(=O)C(c2c[nH]c3ccccc23)=C1c1cnc[nH]1 | > 100 |
| Cc1c([N+](=O)[O-])ccc2c(NCCCN(C)C)ccnc12 | > 100 |
| Cc1cc(C)nc(NC(=O)c2ccc(Br)s2)c1 | > 100 |
| N#Cc1nc2ccccc2nc1N1CCN(c2ccc([N+](=O)[O-])cc2)CC1 | > 100 |
| CN1CCN(C(=O)CCNC(=O)Cc2ccc(C(=O)c3ccccc3)cc2)CC1 | > 100 |
| COc1cc(OC)c(-c2ccc(OCc3ccccc3)c3c(OC)cc(C)cc23)c2c1C(C)=N[C@H](C)C2 | 3.68 |
| COc1ccc(N2C(=O)C(=O)N(c3ccccc3[N+](=O)[O-])C2=S)cc1 | 44.9 |
| O=C(O)CC1NC(/C(=C/c2ccccc2)NC(=O)c2ccccc2)OC1=O (stereo unspecified) | 66.5 |
| Nc1c2c(nc3cc(F)c(F)cc13)CCC2 | > 100 |
| COc1ccccc1/C(=N\OCCC(=O)O)c1cccs1 | > 100 |
| CC(C)(Br)C(Br)CCC1(C2CO2)CO1 (stereo unspecified) | > 5 |
| CCCn1c2ccccc2c2ccc3c(c21)C(=O)C=CC3=O | > 6.96 |
| CC1(c2cccs2)CC(c2cccs2)=C(C#N)C(=C(C#N)C#N)N1 (stereo unspecified) | 42.9 |
| O=C1C2CC=CCC2C(=O)N1n1c(Cc2ccc(Cl)cc2)n[nH]c1=O (stereo unspecified) | > 100 |
| CCN(CC)CCC(=O)/C=C/c1ccccc1 | 52.5 |
| Oc1c(C2=NNC(c3ccc(Cl)cc3Cl)C2)ccc2ccccc12 (stereo unspecified) | > 100 |

What follows are compounds tested on HT29 colon (assay: growth of human tumour cells (NCI), 48 h).

| SMILES | TGI [µM] |
| --- | --- |
| OC1[C@@H]2[C@@H](O)[C@H](O)[C@@H](O)N2C[C@@H]1O (stereo partly specified) | > 100 |
| C=C1C(=O)C[C@H]2C(=C)C(=O)O[C@@H]2C2C1CC[C@@]2(C)O (stereo partly specified) | 41.1 |
| COC(=O)C1=C(C)NC2=C(C(=O)c3ccccc32)C1c1cn(-c2ccccc2)nc1-c1ccccc1 (stereo unspecified) | > 30.5 |
| OCC1OC(c2cccc3cc(O)c(O)cc23)CC1O (stereo unspecified) | > 100 |
| CC(C)(Cl)C(Br)CCC(C)(Cl)C(Br)CBr (stereo unspecified) | 46.8 |
| O=C(NCC(=O)N1CCCC1C(=O)OC(=O)C1CCCN1C(=O)CNC(=O)OCc1ccccc1)OCc1ccccc1 (stereo unspecified) | 79.2 |
| CN(Cc1cnc2nc(N)nc(N)c2n1)c1ccc(C(=O)NC(CCC(=O)NCCC(P(=O)(O)O)P(=O)(O)O)C(=O)O)cc1 (stereo unspecified) | > 100 |
| O=C1NC(NNc2ccccc2)=N/C1=C\c1ccccc1O | > 100 |
| C[N+](CCCl)(CCCl)Cc1cccc2cccc([N+](=O)[O-])c12 | > 100 |
| O=C1NC(=O)C(c2c[nH]c3ccccc23)=C1c1cnc[nH]1 | > 100 |
| Cc1c([N+](=O)[O-])ccc2c(NCCCN(C)C)ccnc12 | 34.1 |
| Cc1cc(C)nc(NC(=O)c2ccc(Br)s2)c1 | > 100 |
| N#Cc1nc2ccccc2nc1N1CCN(c2ccc([N+](=O)[O-])cc2)CC1 | > 100 |
| CN1CCN(C(=O)CCNC(=O)Cc2ccc(C(=O)c3ccccc3)cc2)CC1 | > 100 |
| COc1cc(OC)c(-c2ccc(OCc3ccccc3)c3c(OC)cc(C)cc23)c2c1C(C)=N[C@H](C)C2 | 3.84 |
| COc1ccc(N2C(=O)C(=O)N(c3ccccc3[N+](=O)[O-])C2=S)cc1 | > 100 |
| O=C(O)CC1NC(/C(=C/c2ccccc2)NC(=O)c2ccccc2)OC1=O (stereo unspecified) | > 100 |
| Nc1c2c(nc3cc(F)c(F)cc13)CCC2 | > 100 |
| COc1ccccc1/C(=N\OCCC(=O)O)c1cccs1 | > 100 |
| CC(C)(Br)C(Br)CCC1(C2CO2)CO1 (stereo unspecified) | > 5 |
| CCCn1c2ccccc2c2ccc3c(c21)C(=O)C=CC3=O | > 10 |
| CC1(c2cccs2)CC(c2cccs2)=C(C#N)C(=C(C#N)C#N)N1 (stereo unspecified) | 34.4 |
| O=C1C2CC=CCC2C(=O)N1n1c(Cc2ccc(Cl)cc2)n[nH]c1=O (stereo unspecified) | > 100 |
| CCN(CC)CCC(=O)/C=C/c1ccccc1 | 12.4 |
| Oc1c(C2=NNC(c3ccc(Cl)cc3Cl)C2)ccc2ccccc12 (stereo unspecified) | > 100 |

The compounds below were run on SNB-19 CNS (assay: growth of human tumour cells (NCI), 48 h).

| SMILES | TGI [µM] |
| --- | --- |
| OC1[C@@H]2[C@@H](O)[C@H](O)[C@@H](O)N2C[C@@H]1O (stereo partly specified) | > 100 |
| C=C1C(=O)C[C@H]2C(=C)C(=O)O[C@@H]2C2C1CC[C@@]2(C)O (stereo partly specified) | > 100 |

— PubChem BioAssay (NCI)
